{
  "source": "patent US7452913B2",
  "about": "“Polymorphs of pyrrole substituted 2-indolinone protein kinase inhibitors” (Pharmacia & Upjohn Company, priority 2003, dated 2008)",
  "type_in_all_cases": "physicochemical",
  "key": {"[1]": {"assay": "Estimation of the solubility of a polymorph in various solvents", "conditions": "thermodynamic from solid", "experimental": "Estimation of the Solubility of a Polymorph in Various Solvents.\nApproximately 1.5 mg of the polymorph, was transferred to 10 mL glass vials (tared) and was weighed (accurate to 0.1 mg). Solvents were added to the vials (one solvent each vial) in a step-wise fashion. After each addition, the vial was capped and shaken. The dissolution of solid was visually observed. If no obvious dissolution was observed, more solvent was added immediately. If dissolution was apparent, the vial was left on the bench for at least 30 minutes before the next addition of solvent. This step was repeated until no crystals were visible against a black and a white background. The solubility was then bracketed by dividing the weight by the final volume and the volume before the last addition. If a solid remained after the addition of 10 mL solvent, the solubility was expressed as less than the weight divided by the final volume. If the solid was completely dissolved after the first addition of solvent, the solubility was expressed as greater than the weight divided by the solvent volume. The solubility values were expressed as mg/mL. All experiments were conducted at room temperature.\nThe estimated solubilities of 5-[5-fluoro-2-oxo-1,2-dihydroindol-(3Z)-ylidenmethyl]-2,4-dimethyl-1H-pyrrole-3-carboxylic acid (2-pyrrolidin-1-ylethyl)-amide in various solvents are presented in Table A. The experiments were carried out using polymorph I at room temperature. The solubilities may be divided into three groups."}, "pKa": {"assay": "pKa"}, "[2]": {"assay": "Equilibrium solution pH of non-buffered aqueous medium after adding the compound", "conditions": "for Equilibrium solution pH: non-buffered aqueous medium, ambient temperature", "experimental": "Determination of the pH—Solubility Profile of Polymorphs.\nAbout 3 mL aqueous solutions of various concentrations of either HCl or NaOH, providing a pH from 1-13, were transferred to a 10 ml glass vial. A sufficient amount of the polymorph was added. The vials were wrapped with aluminum foil and manually shaken. They were allowed to sit in the fume hood overnight prior to any further treatment.\nAs expected, the equilibrium solubility of this compound is higher at lower solution pH (Table A). However, the dissolution of a particle in a dissolution medium depends on the pH in the diffusion layer. The pH value of the diffusion layer in intimate contact with the solid (pHh=0) may be obtained from equilibrium pH of the solution, measured by a pH meter. Results are presented in Table B. When the initial pH is higher than 10, the solubility of 5-[5-fluoro-2-oxo-1,2-dihydroindol-(3Z)-ylidenmethyl]-2,4-dimethyl-1 H-pyrrole-3-carboxylic acid (2-pyrrolidin-1-ylethyl)-amide is very low. Therefore, the pH of the solution at equilibrium is almost not changed. On the other hand, if the initial pH<10, more 5-[5-fluoro-2-oxo-1,2-dihydroindol-(3Z)-ylidenmethyl]-2,4-dimethyl-1H-pyrrole-3-carboxylic acid (2-pyrrolidin-1-ylethyl)-amide goes into solution and the equilibrium solution pH is higher than the initial pH (Table B)."}, "[3]": {"assay": "Rotating disc intrinsic dissolution rate (IDR) determination", "conditions": "for Color change of pellet side exposed to dissolution medium (solid-state conversion): 0.05M KCl, pH 2 buffer, original pellet yellow; for IDR (n = 3): pH = 2 buffer (0.01 N HCl and 0.05 M KCl) at 23° C.", "experimental": "Rotating Disc Intrinsic Dissolution Rate (IDR) Determination. The IDR was measured using a fiber optic UV automated dissolution system. The dissolution process was monitored in some instances continuously at 426.2 nm using the fiber optic probe with 10 data points taken per minute. To prepare the compressed disc for the experiment, the powders were compressed in a stainless steel (SS) die, (1¼″ dia×1″, ID 3/16″) using a high speed steel (HSS) punch (diameter 3/16″ and length 3½″). The HSS punch was inserted into the die to a distance of about ¾″, leaving about ¼″ for placement of about 10 mg of the drug into the die cavity. A SS base plate (diameter ¼″) was placed to cover the cavity. The entire assembly was then secured by a 2-bolt holder. A Carver press was used to compress the powder at to ˜1,000 lbs (˜37,000 psi) for 3 minutes. The die and holder was removed from the Carver press and the punch was pulled back a little to allow the pellet to relax/expand. The die was then tightly attached on the HSS punch by a set-screw. The entire punch and die assembly containing the drug pellet with one face of the drug pellet exposed was removed as a unit from the holder and was attached to an electric motor. The die was rotated at 300 rpm and was lowered into the dissolution medium 3 min after the initiation of the data collection program. The dissolution medium was degassed and was contained in a 500 mL water jacketed beaker (Pyrex, No.1000). The data collect during the first 3 min provided a baseline value for each dissolution experiment. The dissolution medium consisted of pH=2 solution (0.01 N HCl and 0.05 M KCl). The die was positioned such that the drug compact was about 2.5″ from the bottom of the 500 mL dissolution vessel and about the same distance from the liquid surface. The intrinsic dissolution profile was plotted using Microsoft Excel and the intrinsic dissolution rate was calculated automatically by the program according to equation (1). The volume of dissolution medium was 300 mL. The surface area of the pellet exposed to dissolution medium was 0.177 cm^2. The time period for a dissolution run was usually 15 min but was varied as needed."}, "[4]": {"assay": "Slurry conversion (suspension crystallization), resulting solid identified by PXRD", "conditions": "room temperature; for Resulting solid by PXRD: stirred 2 weeks", "experimental": "To determine the relative thermodynamic stability relationship between two polymorphs, a slurry conversion experiment was also studied at room temperature using PXRD.\nPolymorph I, 20 mg, was suspended in various solvents alone with trace amount of polymorph II seeding crystals in 10 mL glass vials. The suspensions were stirred by magnetic stirring bars for 2 weeks before the solids were filtered and analyzed by PXRD. […] Because the solubility in THF is higher than that in acetone (Table A), low solubility is not the reason for the slow conversion kinetics."}, "[5]": {"assay": "Suspension of polymorphs in pH 2 dissolution medium (HCl salt formation test)", "conditions": "for Color change of suspended particles: at least 15 minutes after suspension; for Appearance of suspension: one day after preparation", "text": "To further test the HCl salt formation hypothesis. Both polymorph I and II were suspended in the above dissolution medium. […] It is also possible that compaction prior to the IDR experiment modify the crystals of polymorph I and render it the ability of rapid conversion. The XRD pattern of polymorph I pellets compressed at various pressures show some degree of amorphous content, which may be connected to its rapid salt formation during the IDR experiment."}},
  "note": "Where two headings read alike, the source gives them in different places. Marks after values point to notes of the source that are not given here.",
  "data": [
    {"smiles": "Cc1[nH]c(/C=C2\\C(=O)Nc3ccc(F)cc32)c(C)c1C(=O)NCCN1CCCC1", "note": "[5-[5-fluoro-2-oxo-1,2-dihydroindol-(3Z)-ylidenmethyl]-2,4-dimethyl-1H-pyrrole-3-carboxylic acid (2-pyrrolidin-1-ylethyl)-amide]", "values": [
      {"measurement": "solubility", "setting": "[1]; DMF and pH<=2 water (one solvent per vial), organic solvent or mixture, DMSO, DMF and pH<=2 water, polymorph I, room temperature, read-out: Solubility (Group III solvents)", "value": "> 1000", "unit": "µg/mL"},
      {"measurement": "solubility", "setting": "[1]; dioxane and THF (one solvent per vial), organic solvent or mixture, methanol, ethanol, dioxane and THF, polymorph I, room temperature, read-out: Solubility (Group II solvents)", "value": "100 to 400", "unit": "µg/mL"},
      {"measurement": "solubility", "setting": "[1]; organic solvent or mixture, isopropyl alcohol, CH2Cl2, ethyl acetate, acetonitrile, acetone, chloroform, toluene, hexane and pH>6 water, polymorph I, room temperature, read-out: Solubility (Group I solvents)", "value": "< 300", "unit": "µg/mL"},
      {"measurement": "pKa", "setting": "pKa", "value": 8.5},
      {"measurement": "pH of the diffusion layer in contact with the solid (pHh=0)", "setting": "[2]; bulk dissolution medium pH as low as 1.4", "value": "> 5"},
      {"measurement": "Solubility at initial pH higher than 10", "setting": "[2]; initial pH higher than 10, aqueous", "value": "very low"},
      {"measurement": "Equilibrium solution pH", "setting": "[2]; initial solution pH 1.43", "value": 5.36},
      {"measurement": "Equilibrium solution pH", "setting": "[2]; initial solution pH 2.19", "value": 5.20},
      {"measurement": "Equilibrium solution pH", "setting": "[2]; initial solution pH 3.22", "value": 6.98},
      {"measurement": "Equilibrium solution pH", "setting": "[2]; initial solution pH 5.47", "value": 8.13},
      {"measurement": "Equilibrium solution pH", "setting": "[2]; initial solution pH 6.73", "value": 8.31},
      {"measurement": "Equilibrium solution pH", "setting": "[2]; initial solution pH 7.24", "value": 8.49},
      {"measurement": "Equilibrium solution pH", "setting": "[2]; initial solution pH 7.61", "value": 8.87},
      {"measurement": "Equilibrium solution pH", "setting": "[2]; initial solution pH 10.07", "value": 9.86},
      {"measurement": "Equilibrium solution pH", "setting": "[2]; initial solution pH 11.53", "value": 11.61},
      {"measurement": "Equilibrium solution pH", "setting": "[2]; initial solution pH 12.50", "value": 12.52},
      {"measurement": "Equilibrium solution pH", "setting": "[2]; initial solution pH 13.20", "value": 13.18}
    ]},
    {"smiles": "Cc1[nH]c(/C=C2\\C(=O)Nc3ccc(F)cc32)c(C)c1C(=O)NCCN1CCCC1", "note": "[polymorph I, 5-[5-fluoro-2-oxo-1,2-dihydroindol-(3Z)-ylidenmethyl]-2,4-dimethyl-1H-pyrrole-3-carboxylic acid (2-pyrrolidin-1-ylethyl)-amide]", "values": [
      {"measurement": "solubility", "setting": "[1]; aqueous buffer, Water (pH = 2), 23° C., read-out: Solubility", "value": 3110, "unit": "µg/mL"},
      {"measurement": "solubility", "setting": "[1]; aqueous buffer, Water (pH = 6), 23° C., read-out: Solubility", "value": 5, "unit": "µg/mL"},
      {"measurement": "solubility", "setting": "[1]; organic solvent or mixture, Acetone, 23° C., read-out: Solubility", "value": "< 160", "unit": "µg/mL"},
      {"measurement": "solubility", "setting": "[1]; organic solvent or mixture, Acetonitrile, 23° C., read-out: Solubility", "value": "< 80", "unit": "µg/mL"},
      {"measurement": "solubility", "setting": "[1]; organic solvent or mixture, CH2Cl2, 23° C., read-out: Solubility", "value": "< 120", "unit": "µg/mL"},
      {"measurement": "solubility", "setting": "[1]; organic solvent or mixture, Chloroform, 23° C., read-out: Solubility", "value": "< 110", "unit": "µg/mL"},
      {"measurement": "solubility", "setting": "[1]; organic solvent or mixture, DMF, 23° C., read-out: Solubility", "value": "> 1500", "unit": "µg/mL"},
      {"measurement": "solubility", "setting": "[1]; organic solvent or mixture, DMSO, 23° C., read-out: Solubility", "value": "1500 to 3000", "unit": "µg/mL"},
      {"measurement": "solubility", "setting": "[1]; organic solvent or mixture, Dioxane, 23° C., read-out: Solubility", "value": "180 to 200", "unit": "µg/mL"},
      {"measurement": "solubility", "setting": "[1]; organic solvent or mixture, Ethyl acetate, 23° C., read-out: Solubility", "value": "< 280", "unit": "µg/mL"},
      {"measurement": "solubility", "setting": "[1]; organic solvent or mixture, Hexane, 23° C., read-out: Solubility", "value": "< 130", "unit": "µg/mL"},
      {"measurement": "solubility", "setting": "[1]; organic solvent or mixture, Isopropanol, 23° C., read-out: Solubility", "value": "< 140", "unit": "µg/mL"},
      {"measurement": "solubility", "setting": "[1]; organic solvent or mixture, PEG 400, 23° C., read-out: Solubility", "value": "300 to 430", "unit": "µg/mL"},
      {"measurement": "solubility", "setting": "[1]; organic solvent or mixture, THF, 23° C., read-out: Solubility", "value": "320 to 400", "unit": "µg/mL"},
      {"measurement": "solubility", "setting": "[1]; organic solvent or mixture, Toluene, 23° C., read-out: Solubility", "value": "< 130", "unit": "µg/mL"},
      {"measurement": "solubility", "setting": "[1]; organic solvent or mixture, ethanol, 23° C., read-out: Solubility", "value": "170 to 190", "unit": "µg/mL"},
      {"measurement": "solubility", "setting": "[1]; organic solvent or mixture, methanol, 23° C., read-out: Solubility", "value": "210 to 310", "unit": "µg/mL"},
      {"measurement": "Color change of pellet side exposed to dissolution medium (solid-state conversion)", "setting": "[3]", "value": "orange-red"},
      {"measurement": "IDR (n = 3)", "setting": "[3]", "value": "1.08 ± 0.09^c mg/min/cm^2"},
      {"measurement": "Resulting solid by PXRD", "setting": "[4]; Acetone suspension", "value": "converts to polymorph II"},
      {"measurement": "Resulting solid by PXRD", "setting": "[4]; Methanol suspension", "value": "converts to polymorph II"},
      {"measurement": "Resulting solid by PXRD", "setting": "[4]; THF suspension", "value": "appears stable"},
      {"measurement": "Color change of suspended particles", "setting": "[5]", "value": "no change of color"},
      {"measurement": "Appearance of suspension", "setting": "[5]", "value": "orange-red needle-shaped crystals"}
    ]},
    {"smiles": "Cc1[nH]c(/C=C2\\C(=O)Nc3ccc(F)cc32)c(C)c1C(=O)NCCN1CCCC1", "note": "[polymorph II, 5-[5-fluoro-2-oxo-1,2-dihydroindol-(3Z)-ylidenmethyl]-2,4-dimethyl-1H-pyrrole-3-carboxylic acid (2-pyrrolidin-1-ylethyl)-amide]", "values": [
      {"measurement": "Color change of pellet side exposed to dissolution medium (solid-state conversion)", "setting": "[3]", "value": "No obvious color change"},
      {"measurement": "IDR of polymorph II relative to apparent IDR of polymorph I", "setting": "[3]; pH 2 buffer at 23° C.", "value": "about three times"},
      {"measurement": "IDR (n = 3)", "setting": "[3]", "value": "3.54 ± 0.15", "unit": "mg/min/cm^2"},
      {"measurement": "Relative thermodynamic stability of the polymorphs", "setting": "[4]", "value": "thermodynamically more stable than polymorph I"},
      {"measurement": "Color change of suspended particles", "setting": "[5]", "value": "no change of color"},
      {"measurement": "Appearance of suspension", "setting": "[5]", "value": "orange-red needle-shaped crystals"}
    ]}
  ]
}
